Values of other authors as cited in patent EP2537519A1, “NEUROPATHIC PAIN ALLEVIATING AGENT” (HBC Science Laboratory Co., Ltd, priority 2010, dated 2011).

Target: Cav3.2 (Homo sapiens, UniProt O95180)
Details: reported by Nelson et al., J Neurosci 2007

Sequence of Cav3.2 (O95180 whole entry): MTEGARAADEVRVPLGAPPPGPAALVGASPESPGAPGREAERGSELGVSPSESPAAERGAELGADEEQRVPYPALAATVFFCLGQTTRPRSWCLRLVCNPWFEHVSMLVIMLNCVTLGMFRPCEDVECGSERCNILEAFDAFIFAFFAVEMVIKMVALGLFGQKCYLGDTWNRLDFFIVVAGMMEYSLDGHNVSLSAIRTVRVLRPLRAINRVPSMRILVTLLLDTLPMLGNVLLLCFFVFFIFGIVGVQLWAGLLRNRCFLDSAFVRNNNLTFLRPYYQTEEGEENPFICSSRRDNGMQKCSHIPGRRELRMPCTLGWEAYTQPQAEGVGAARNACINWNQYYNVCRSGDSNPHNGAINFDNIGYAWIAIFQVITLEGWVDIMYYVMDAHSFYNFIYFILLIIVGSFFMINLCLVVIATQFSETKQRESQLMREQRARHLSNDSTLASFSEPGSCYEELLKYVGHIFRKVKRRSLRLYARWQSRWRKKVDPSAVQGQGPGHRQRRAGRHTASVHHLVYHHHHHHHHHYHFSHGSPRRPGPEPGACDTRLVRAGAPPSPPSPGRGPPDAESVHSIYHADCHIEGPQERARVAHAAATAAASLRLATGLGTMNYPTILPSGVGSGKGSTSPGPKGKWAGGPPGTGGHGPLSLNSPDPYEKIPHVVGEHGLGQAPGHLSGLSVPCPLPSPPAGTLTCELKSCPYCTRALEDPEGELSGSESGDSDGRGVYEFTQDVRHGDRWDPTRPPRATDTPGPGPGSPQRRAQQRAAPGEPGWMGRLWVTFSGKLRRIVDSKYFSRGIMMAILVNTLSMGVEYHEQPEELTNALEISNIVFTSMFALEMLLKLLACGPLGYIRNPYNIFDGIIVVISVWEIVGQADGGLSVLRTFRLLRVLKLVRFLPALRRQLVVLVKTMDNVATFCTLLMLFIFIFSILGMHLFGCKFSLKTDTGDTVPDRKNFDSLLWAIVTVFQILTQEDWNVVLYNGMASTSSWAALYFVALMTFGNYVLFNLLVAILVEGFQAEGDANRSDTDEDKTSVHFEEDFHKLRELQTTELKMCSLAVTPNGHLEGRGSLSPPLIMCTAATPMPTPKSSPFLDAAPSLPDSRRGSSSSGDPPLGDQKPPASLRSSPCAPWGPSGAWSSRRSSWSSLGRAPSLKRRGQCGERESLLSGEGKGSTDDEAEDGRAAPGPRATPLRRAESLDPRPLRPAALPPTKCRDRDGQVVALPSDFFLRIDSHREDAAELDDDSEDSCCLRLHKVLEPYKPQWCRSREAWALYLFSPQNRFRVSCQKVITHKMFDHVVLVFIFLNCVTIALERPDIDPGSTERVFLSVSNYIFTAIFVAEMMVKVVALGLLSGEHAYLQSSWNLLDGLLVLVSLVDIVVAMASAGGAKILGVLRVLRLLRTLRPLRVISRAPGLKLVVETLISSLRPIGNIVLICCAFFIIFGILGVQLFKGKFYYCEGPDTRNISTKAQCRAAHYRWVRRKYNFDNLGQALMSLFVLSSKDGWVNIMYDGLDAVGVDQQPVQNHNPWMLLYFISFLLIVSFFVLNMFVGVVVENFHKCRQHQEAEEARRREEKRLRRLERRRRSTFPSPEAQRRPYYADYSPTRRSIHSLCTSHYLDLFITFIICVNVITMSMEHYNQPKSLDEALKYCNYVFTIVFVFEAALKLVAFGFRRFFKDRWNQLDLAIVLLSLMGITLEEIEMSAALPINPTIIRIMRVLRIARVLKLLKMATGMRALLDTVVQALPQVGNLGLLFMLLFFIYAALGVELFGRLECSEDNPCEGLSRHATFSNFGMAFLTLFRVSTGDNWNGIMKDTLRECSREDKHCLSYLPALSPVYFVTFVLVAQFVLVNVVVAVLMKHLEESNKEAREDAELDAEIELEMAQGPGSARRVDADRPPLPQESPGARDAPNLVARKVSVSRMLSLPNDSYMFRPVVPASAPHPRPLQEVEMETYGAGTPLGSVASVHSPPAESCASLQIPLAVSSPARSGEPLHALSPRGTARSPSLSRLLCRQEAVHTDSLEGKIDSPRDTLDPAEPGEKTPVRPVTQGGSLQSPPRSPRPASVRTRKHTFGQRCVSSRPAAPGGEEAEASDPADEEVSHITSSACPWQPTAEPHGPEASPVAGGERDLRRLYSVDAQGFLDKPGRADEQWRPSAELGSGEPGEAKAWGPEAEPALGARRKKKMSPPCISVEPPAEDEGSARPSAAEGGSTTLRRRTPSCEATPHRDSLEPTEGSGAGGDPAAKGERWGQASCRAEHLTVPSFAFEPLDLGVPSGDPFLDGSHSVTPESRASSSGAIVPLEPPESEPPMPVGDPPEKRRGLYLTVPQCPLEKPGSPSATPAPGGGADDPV

Question: With `O=C1O[C@H]([C@@H](O)CO)C(O)=C1O` [ascorbic acid] as the molecule, how does the “inhibition of Cav3.2 among T-type Ca2+ channels” value read?
Answer: The value was “specifically inhibits”.
